From patent US9376725B1, “Methods of screening for compounds for treating muscular dystrophy using human ALPHA7 integrin mRNA translation regulation” (PTC Therapeutics, Inc., priority 2007, dated 2016)

Columns and labels:
UTRN mRNA = assay: fLuc reporter gene assay, UTRN 5′-UTR and 3′-UTR stable cell line; type: cell-based, human; settings: 7.5 μM test concentration, 24 hours, vs 0.5% DMSO, luciferase luminescence, stable 293H or RD cells
Excerpt: (§1) As shown in the following examples, compounds that modulate the expression of proteins (e.g., mIGF1, ITGA7, or UTRN) have been identified or validated and have the potential to treat MD, or a form thereof. Stable muscle (RD) or kidney (293H) cell lines expressing the firefly luciferase (fLuc) reporter gene flanked by the 5′-UTR and 3′-UTR of mIGF1, ITGA7, or UTRN mRNA were constructed and used to identify or validate compounds able to specifically increase expression of a reporter gene via nucleic acid constructs comprising at least the 5′-UTR and 3′-UTR of mIGF1, ITGA7 or UTRN and to increase expression of endogenous mIGF1, ITGA7 or UTRN protein.
(§2) A high-level expression vector, pcDNA™3.1/Hygro (Invitrogen Corp., Carlsbad, Calif.) was used for preparing the constructs comprising the luciferase gene flanked by any of the 5′-UTR and 3′-UTR, the 5′-UTR or the 3′-UTR of mIGF1, ITGA7, and UTRN mRNA. In a pcDNA™3.1/Hygro vector, the UTRs and restriction sites normally associated with cloning and/or expressing a gene of interest or reporter gene were removed or replaced. For each construct containing 5′ UTR sequences, the 5′ UTR sequences with a start codon were cloned into the vector using the appropriate restriction sites.
(§3) Stable 293H and RD cell lines containing the firefly luciferase (fLuc) gene flanked by mIGF1, ITGA7, or UTRN 5′-UTR and 3′-UTR were cultured in DMEM medium supplemented with 10% FBS and 200 μg/mL hygromycin in Fisher T175 flasks. The cells were passaged every 4 days at 1:10 dilution. Cultures were kept in a 37° C. and 5% CO2 incubator. The cells were scaled-up three days before performing the assay. Two confluent T175 flasks were split into twenty T175 flasks (1:10 dilution). Cells were harvested from each confluent flask by removing all of the media and adding 4 mL of warmed trypsin to dislodge the cells. After the cells were dislodged, 16 mL of selective media was added for a final volume of 20 mL. The cells were expanded by adding 2 mL of the harvested cells into ten new T175 flasks plus 25 ml, of selective media. The twenty new flasks were placed into the 37° C., 5% CO2 incubator. On the day the assay was performed, the media was removed from the flasks and 3 mL of warmed trypsin was added to dislodge the cells. After the cells were dislodged, 10 mL of nonselective media was added to the flask. This was repeated for all twenty flasks and combined into one flask. 100 μL of the above cell culture plus 100 μL of Trypan Blue stain was counted on a hemocytometer. 38 μL of cells (approximately 263 cells/4) were plated in the presence of 2 μL of a compound to be tested (at final concentration of 7.5 μM with 0.5% DMSO).
(§4) The firefly luciferase substrate used was Luc Lite Plus Packard #6016969. Luciferase activity was immediately assayed using a ViewLux Imaging system (Perkin Elmer).
(§5) The screening assay was performed by preparing plates containing test compounds and controls, including wells that contained only vehicle or a high inhibitor concentration and wells that provided an 8-point dose response curve of puromycin, a non-specific standard control inhibitor. The cells were grown overnight in the presence of compounds or controls at 37° C. in 5% CO2. Compounds were screened once for percent inhibition at a 7.5 μM test concentration. After 24 hours, the amount of luminescence was determined using a ViewLux Imaging system (Perkin Elmer).
(§6) The results for compounds shown in the following tables indicate that the compounds of the present invention enhance post-transcriptional expression of a nucleic acid construct comprising a reporter gene operably linked to any of the 5′-UTR and 3′-UTR, the 5′-UTR or the 3′-UTR of the target mIGF1 mRNA (Table 1), ITGA7 mRNA (Table 2), or UTRN mRNA (Table 3). […]

mIGF1 mRNA = assay: fLuc reporter gene assay, mIGF1 5′-UTR and 3′-UTR stable cell line; type: cell-based, human; settings: 7.5 μM test concentration, 24 hours, vs 0.5% DMSO, luciferase luminescence, stable 293H or RD cells
Excerpt: as §1, §2, §3, §4, §5, §6

ITGA7 mRNA = assay: fLuc reporter gene assay, ITGA7 5′-UTR and 3′-UTR stable cell line; type: cell-based, human; settings: 7.5 μM test concentration, 24 hours, vs 0.5% DMSO, luciferase luminescence, stable 293H or RD cells
Excerpt: as §1, §2, §3, §4, §5, §6

[1] = CellTiter-Glo cytotoxicity assay, U937; type: cell-based; settings: human, U937 cells (monocyte cell line); U937, relatively sensitive cell line
Excerpt: To evaluate cytotoxicity of the compounds in the 293H and RD cell lines, the CellTiter-Glo assay (Promega) is utilized. CellTiter-Glo determines the number of viable cells in culture based on quantification of the ATP present, which signals the presence of metabolically active cells. A reduction in cellular ATP is indicative of a cytotoxic or cytostatic effect. Doxorubicin, a known cytotoxic compound, is used to address the sensitivity of the tested cell line. For relatively sensitive cell lines, such as U937 (a human monocyte cell line), the CC50 of doxorubicin ranges from 4 to 10 nM.

[2] = CellTiter-Glo cytotoxicity assay, Huh7; type: cell-based; settings: human, Huh7 cells (hepatoblastoma cell line); Huh7, intermediate level of sensitivity
dystrophin [3] = settings: mouse model; results could not be replicated; cited from earlier work
dystrophin [4] = settings: human clinical trials; cited from earlier work

Row | Molecule | UTRN, fold increase compared to negative control (UTRN mRNA) | mIGF1, fold increase compared to negative control (mIGF1 mRNA) | ITGa7, fold increase compared to negative control (ITGA7 mRNA) | CC50 [1] [nM] | CC50 [2] [nM] | increase in dystrophin levels (dystrophin [3]) | increase in expression of dystrophin (dystrophin [4])
1 | Nc1ccc(Sc2cc(Cl)nc(N)n2)cc1 [Cpd 1, 4-(4-aminophenylthio)-6-chloropyrimidin-2-amine] | ** (two stars indicate a greater than one-fold and up to two-fold increase in target mRNA) | ** (two stars indicate a greater than one-fold and up to two-fold increase in target mRNA) | ** (two stars indicate a greater than one-fold and up to two-fold increase in target mRNA) | – | – | – | –
2 | CN(C)c1ccc(-c2nc3cc([N+](=O)[O-])ccc3[nH]2)cc1 [Cpd 2, N,N-dimethyl-4-(5-nitro-1H-benzo[d]imidazol-2-yl)aniline] | *** (three stars indicate a greater than two-fold and up to three-fold increase in target mRNA) | ** (two stars indicate a greater than one-fold and up to two-fold increase in target mRNA) | **** (four stars indicate a greater than three-fold and up to four-fold increase in target mRNA) | – | – | – | –
3 | Oc1cccc(-c2nc3ccc4ccccc4c3c3c2CCC3)c1 [Cpd 4, 3-(2,3-dihydro-1H-benzo[f]cyclopenta[c]quinolin-4-yl)phenol] | ** (two stars indicate a greater than one-fold and up to two-fold increase in target mRNA) | *** (three stars indicate a greater than two-fold and up to three-fold increase in target mRNA) | *** (three stars indicate a greater than two-fold and up to three-fold increase in target mRNA) | – | – | – | –
4 | COc1cccc2c1C(=O)c1c(O)c3c(c(O)c1C2=O)C[C@@](O)(C(=O)CO)C[C@@H]3O[C@H]1C[C@H](N)[C@H](O)[C@H](C)O1 [doxorubicin, Doxorubicin] | – | – | – | 4 to 10 | 70 to 300 | – | –
5 | N#CC1=C(N)Oc2c(ccc3ccccc23)C1c1cccc(C(F)(F)F)c1 (stereo not shown) [Cpd 6, 2-amino-4-(3-(trifluoromethyl)phenyl)-4H-benzo[h]chromene-3-carbonitrile] | ** (two stars indicate a greater than one-fold and up to two-fold increase in target mRNA) | * (one star indicates less than one-fold increase in target mRNA) | * (one star indicates less than one-fold increase in target mRNA) | – | – | – | –
6 | CCOc1ccc(C(=O)NC(=S)Nc2ccc(-c3nc4ccccc4s3)cc2)cc1[N+](=O)[O-] [Cpd 5, N-(4-(benzo[d]thiazol-2-yl)phenylcarbamothioyl)-4-ethoxy-3-nitrobenzamide] | *** (three stars indicate a greater than two-fold and up to three-fold increase in target mRNA) | ** (two stars indicate a greater than one-fold and up to two-fold increase in target mRNA) | *** (three stars indicate a greater than two-fold and up to three-fold increase in target mRNA) | – | – | – | –
7 | CCCc1cc(Cl)n2c(nc3ccccc32)c1C#N [Cpd 3, 1-chloro-3-propyl-benzoimidazo[1,2-a]pyridine-4-carbonitrile] | ** (two stars indicate a greater than one-fold and up to two-fold increase in target mRNA) | * (one star indicates less than one-fold increase in target mRNA) | * (one star indicates less than one-fold increase in target mRNA) | – | – | – | –
8 | CCCCOc1ccc(C(=O)NC(=S)Nc2cc(-c3nc4ccccc4s3)ccc2C)cc1 [Cpd 7, N-(5-(benzo[d]thiazol-2-yl)-2-methylphenylcarbamothioyl)-4-butoxybenzamide] | ** (two stars indicate a greater than one-fold and up to two-fold increase in target mRNA) | *** (three stars indicate a greater than two-fold and up to three-fold increase in target mRNA) | **** (four stars indicate a greater than three-fold and up to four-fold increase in target mRNA) | – | – | – | –
9 | gentamicin | – | – | – | – | – | 10-20% | no increase
